Reference: US20070178523A1, “Novel druggable regions in set domain proteins, and methods of using the same” (Emory University, priority 2002, published 2007)
Entries after “also recorded” stand apart in the source; their conditions may differ.

What was measured:
DIM-5 [1] = molecular target: T1, DIM-5 (Neurospora crassa, UniProt Q8X225); assay: AdoMet-binding assay by UV crosslinking; design: A segment of the wild-type dim-5 ORF, including amino acid residues 17-318, was amplified; GST (N, cleaved yes); made in house; host or cells: E. coli BL21(DE3) Codon plus RIL carrying pXC379 (pGEX2T); species or system N. crassa; conditions: incubation of metal chelator with DIM-5 protein
T1 sequence (Q8X225 30-331): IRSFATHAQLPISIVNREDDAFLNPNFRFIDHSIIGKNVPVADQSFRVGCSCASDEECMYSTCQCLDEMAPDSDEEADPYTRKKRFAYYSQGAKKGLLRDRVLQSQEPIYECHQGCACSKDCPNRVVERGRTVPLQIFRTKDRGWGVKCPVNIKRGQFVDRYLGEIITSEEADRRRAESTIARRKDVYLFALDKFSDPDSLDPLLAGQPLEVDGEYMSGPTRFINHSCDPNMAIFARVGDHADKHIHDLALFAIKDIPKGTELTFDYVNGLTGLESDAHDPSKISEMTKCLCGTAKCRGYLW
Experimental: Twenty μl of purified DIM-5 protein (2-5 μg) was incubated with 0.5 μCi of [methyl-^3H]AdoMet (78 Ci/mmol, NEN NET155H) overnight at 4° C. Samples were added to a 96-well plate on ice and placed 8 cm from an inverted UV transilluminator (VWR, 302 nm) for 1 hr. The protein was then separated by SDS-PAGE, stained with Coomassie and subjected to fluorography.

DIM-5 [2] = molecular target: T1, DIM-5; conditions: when EDTA completely abolished DIM-5 activity
Experimental: To remove zinc bound to EDTA, the protein was either dialyzed (Exp1) or subjected to gel filtration chromatography (Exp2) against 20 mM glycine (pH 9.8), 5% glycerol, 0.5 mM DTT and 1 mM EDTA.
One sample of untreated and two samples of EDTA treated DIM-5 protein (about 2 ml of 2 mg/ml each) was analyzed for the presence of 20 elements on a Thermo Jarrell-Ash Enviro 36 ICAP analyzer at the Chemical Analysis Laboratory of the University of Georgia at Athens. In order to calculate the molar ratio of Zn to protein, the precise concentration of the untreated DIM-5 protein was determined by amino acid analysis (averaging two independent measurements) performed at the Keck Facilities at Yale University. The extinction coefficient (29,559 M^−1 cm^−1) derived from the amino acid analysis was used to estimate the protein concentration of the EDTA-treated samples.

DIM-5 [3] = molecular target: T1, DIM-5; assay: Methyl transfer (HKMT) activity assay; format: biochemical, N. crassa; design: A segment of the wild-type dim-5 ORF, including amino acid residues 17-318, was amplified; GST (N, cleaved yes); made in house; host or cells: E. coli BL21(DE3) Codon plus RIL carrying pXC379 (pGEX2T); conditions: for DIM-5 activity after incubation with metal chelator: incubation of metal chelator with DIM-5 protein
Experimental: The activity of the DIM-5 was assayed in a 20 μl reaction containing 50 mM glycine (pH 9.8), 2 mM DTT, 40-80 μM unlabelled AdoMet (Sigma), 0.5 μCi [methyl-^3H]AdoMet (78 Ci/mmol, NEN NET155H), 0.25-0.5 μg of DIM-5 protein, and 2-5 μg histones (calf thymus histones Sigma H4524, Roche 223565, or recombinant chicken erythrocyte histones, a gift from Dr. V. Ramakrishnan). The reaction was incubated at room temperature for 10-15 min and methylation was analyzed either by SDS-PAGE and fluorography, or by precipitation with 20% TCA, filtration (Milipore GF/F filter), washing and liquid scintillation counting. Under these conditions, DIM-5 activity was linearly related to reaction time and amount of enzyme and AdoMet and histone were saturating. For some reason, the relatively crude Sigma H4524 histone preparations generally gave 2-4 fold higher incorporation than either the Roche preparations or the recombinant histones.

| Structure (SMILES) | AdoMet-binding (DIM-5 [1]) | zinc ions retained by the protein (DIM-5 [2]) [zinc ions] | HKMT activity (DIM-5 [3]; DIM-5 incubated with 20 mM EDTA for 2 days) | DIM-5 activity after incubation with metal chelator (DIM-5 [3]) | inhibition of DIM-5 activity (DIM-5 [3]; 100 mM NaCl) |
| --- | --- | --- | --- | --- | --- |
| O=C(O)CN(CCN(CC(=O)O)CC(=O)O)CC(=O)O [EDTA] | significantly reduced | ~2.9 | no longer detectable | inhibited its activity; also recorded: completely abolished |  |
| [Cl-].[Na+] [NaCl] |  |  |  |  | about 95% |
| c1cnc2c(c1)ccc1cccnc12 [phenanthroline, 1,10-phenanthroline] | significantly reduced |  |  | inhibited its activity |  |
